# Assay results as given in patent publication US7547699B2, “Tetracyclic 6 azapyrazinoindolines as 5HT2C receptor agonists for obesity” (Hoffmann-La Roche Inc., priority 2005, dated 2009).
# What was measured:
# 5-HT2C receptor [1] = molecular target: T1, 5-HT2C receptor (Homo sapiens, UniProt P28335); experiment: Binding to 5-HT2C receptor, [3H]-5-HT radioligand, Method (a); parameters: expressed in transfected cells; host or cells: CHO cell line; conditions: 5-HT2C receptors in a CHO cell line, read-out: Method (a) Ki (2C)
# T1 sequence (P28335 33-458): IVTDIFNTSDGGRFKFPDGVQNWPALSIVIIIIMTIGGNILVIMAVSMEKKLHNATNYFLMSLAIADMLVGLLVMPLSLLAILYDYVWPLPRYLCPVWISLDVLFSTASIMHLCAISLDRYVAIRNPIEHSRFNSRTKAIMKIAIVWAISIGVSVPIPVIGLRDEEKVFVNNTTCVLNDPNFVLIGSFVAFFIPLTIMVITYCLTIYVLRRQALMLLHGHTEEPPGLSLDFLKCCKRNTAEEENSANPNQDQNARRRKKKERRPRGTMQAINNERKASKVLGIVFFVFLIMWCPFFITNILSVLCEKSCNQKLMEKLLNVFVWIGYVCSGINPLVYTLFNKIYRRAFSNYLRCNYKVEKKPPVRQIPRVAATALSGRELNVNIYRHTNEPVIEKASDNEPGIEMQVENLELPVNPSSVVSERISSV
# Experimental: (§1) The binding of compounds of formula (I) to serotonin receptors was determined in vitro by standard methods. The preparations were investigated in accordance with the assays given hereinafter.
# Method (a): For the binding to the 5-HT2C receptor the 5-HT2C receptors were radiolabeled with [^3H]-5-HT. The affinity of the compounds for 5-HT2C receptors in a CHO cell line was determined according to the procedure of D. Hoyer, G. Engel and H. O. Kalkman, European J. Pharmacol., 1985, 118, 13-23.
# 5-HT2C receptor [2] = molecular target: T1, 5-HT2C receptor; experiment: Functional activity, FLIPR calcium assay in CHO cells expressing human 5-HT2C; format: cell-based; parameters: expressed in transfected cells; host or cells: CHO cells; conditions: for EC50: CHO cells, FLIPR, Fluo-3-AM, read-out: h5-HT2C EC50; for h5-HT2C Rel. Eff.: maximum fluorescent signal relative to 10 μM 5-HT (defined as 100%)
# Experimental: (§2) The functional activity of compounds of formula (I) was assayed using a Fluorimetric Imaging Plate Reader (FLIPR). CHO cells expressing the human 5-HT2C or human 5-HT2A receptors were counted and plated into standard 96 well microtitre plates on the day before testing to give a confluent monolayer. The cells were then loaded with the calcium sensitive dye, Fluo-3-AM. Unincorporated dye was removed using an automated cell washer to leave a total volume of 100 μL/well of assay buffer (Hanks balanced salt solution containing 20 mM Hepes and 2.5 mM probenecid). The drug (dissolved in 50 μL of the assay buffer) was added at a rate of 70 μL/sec to each well of the FLIPR 96 well plate during fluorescence measurements. The measurements were taken at 1 sec intervals and the maximum fluorescent signal was measured (approx 10-15 secs after drug addition) and compared with the response produced by 10 μM 5-HT (defined as 100%) to which it was expressed as a percentage response (relative efficacy). Dose response curves were constructed using Graphpad Prism (Graph Software Inc.).
# 5-HT2A receptor [3] = molecular target: T2, 5-HT2A receptor (Homo sapiens, UniProt P28223); experiment: Functional activity, FLIPR calcium assay in CHO cells expressing human 5-HT2A; format: cell-based; parameters: expressed in transfected cells; host or cells: CHO cells; conditions: for EC50: CHO cells, FLIPR, Fluo-3-AM, read-out: h5-HT2A EC50; for h5-HT2A Rel. Eff.: maximum fluorescent signal relative to 10 μM 5-HT (defined as 100%)
# T2 sequence (P28223 whole entry): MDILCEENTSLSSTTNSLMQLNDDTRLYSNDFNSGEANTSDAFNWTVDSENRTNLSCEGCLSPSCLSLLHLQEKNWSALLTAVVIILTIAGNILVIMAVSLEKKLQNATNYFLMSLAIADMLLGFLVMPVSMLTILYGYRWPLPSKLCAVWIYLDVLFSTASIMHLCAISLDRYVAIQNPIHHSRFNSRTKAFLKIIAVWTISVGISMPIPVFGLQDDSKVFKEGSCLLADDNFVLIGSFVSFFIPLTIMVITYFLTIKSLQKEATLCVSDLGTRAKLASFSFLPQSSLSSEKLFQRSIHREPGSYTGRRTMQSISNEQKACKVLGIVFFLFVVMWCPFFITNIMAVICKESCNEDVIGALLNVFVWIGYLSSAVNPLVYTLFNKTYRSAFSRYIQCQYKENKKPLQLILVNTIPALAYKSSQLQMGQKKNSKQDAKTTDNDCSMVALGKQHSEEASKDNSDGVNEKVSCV
# Experimental: as §2
# human 5-HT2B receptors = molecular target: T3, human 5-HT2B receptors (Homo sapiens, UniProt P41595); experiment: Binding to 5-HT2B receptor, [3H]-5-HT radioligand, Method (b); conditions: human 5-HT2B receptors in a CHO cell line, read-out: Method (b) Ki (2B)
# T3 construct: expressed in transfected cells; host or cells: CHO cell line
# T3 sequence (P41595 whole entry): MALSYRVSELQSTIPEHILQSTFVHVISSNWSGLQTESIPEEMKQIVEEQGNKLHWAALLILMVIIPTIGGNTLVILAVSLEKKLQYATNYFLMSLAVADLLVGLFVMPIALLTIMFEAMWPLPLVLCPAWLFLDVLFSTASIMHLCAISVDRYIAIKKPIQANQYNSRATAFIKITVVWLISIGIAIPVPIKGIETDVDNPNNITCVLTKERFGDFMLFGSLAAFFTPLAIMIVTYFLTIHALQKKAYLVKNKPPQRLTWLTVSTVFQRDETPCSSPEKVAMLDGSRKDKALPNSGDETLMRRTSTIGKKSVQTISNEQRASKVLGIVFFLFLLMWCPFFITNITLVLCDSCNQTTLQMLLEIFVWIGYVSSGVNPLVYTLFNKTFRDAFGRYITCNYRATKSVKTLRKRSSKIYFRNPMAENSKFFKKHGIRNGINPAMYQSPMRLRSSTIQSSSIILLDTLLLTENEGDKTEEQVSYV
# Experimental: as §1
# Method (b): For the binding to the 5-HT2B receptor the 5-HT2B receptors were radiolabeled with [^3H]-5-HT. The affinity of the compounds for human 5-HT2B receptors in a CHO cell line was determined according to the procedure of K. Schmuck, C. Ullmer, P. Engels and H. Lubbert, FEBS Lett., 1994, 342, 85-90.
# 5-HT2A receptor [4] = molecular target: T2, 5-HT2A receptor; experiment: Binding to 5-HT2A receptor, [125I]-DOI radioligand, Method (c); parameters: expressed in transfected cells; host or cells: CHO cell line; conditions: 5-HT2A receptors in a CHO cell line, read-out: Method (c) Ki (2A)
# Experimental: as §1
# Method (c): For the binding to the 5-HT2A receptor the 5-HT2A receptors were radiolabeled with [^125I]-DOI. The affinity of the compounds for 5-HT2A receptors in a CHO cell line was determined according to the procedure of D. J. McKenna and S. J. Peroutka, J. Neurosci., 1989, 9, 3482-90.
compound,measurement,setting,value
"C[C@@H]1CNC[C@H]2Cc3cc4c(nc3N21)C(C)(C)OC4 [Example 19, (5R,8aR)-3,3,5-Trimethyl-1,3,5,6,7,8,8a,9-octahydro-2-oxa-4,4b,7-triaza-cyclopenta[b]fluorene]",Ki,5-HT2C receptor [1],5.5 nM
same,EC50,5-HT2C receptor [2],8.4 nM
same,h5-HT2C Rel. Eff.,5-HT2C receptor [2],87%
same,EC50,5-HT2A receptor [3],> 1000 nM
same,h5-HT2A Rel. Eff.,5-HT2A receptor [3],3%
same,Ki,human 5-HT2B receptors,26.3 nM
same,Ki,5-HT2A receptor [4],80.2 nM
Cc1c2c(nc3c1C[C@@H]1CNC[C@@H](C)N31)COC2,melting point,,118 to 119 °C
"C[C@@H]1CNC[C@H]2Cc3cc4c(nc3N21)CSC4 [Example 33, (5R,8aR)-5-Methyl-1,3,5,6,7,8,8a,9-octahydro-2-thia-4,4b,7-triaza-cyclopenta[b]fluorene]",Ki,5-HT2C receptor [1],5.3 nM
same,Ki,human 5-HT2B receptors,21.1 nM
same,Ki,5-HT2A receptor [4],98.9 nM
C[C@@H]1OCc2cc3c(nc21)N1[C@@H](CNC[C@H]1C)C3,melting point,,90 to 91 °C
"C[C@@H]1CNC[C@H]2Cc3cc4c(nc3N21)[C@H](C1CC1)OC4 [Example 17, (3S,5R,8aR)-3-Cyclopropyl-5-methyl-1,3,5,6,7,8,8a,9-octahydro-2-oxa-4,4b,7-triaza-cyclopehta[b]fluorene]",Ki,5-HT2C receptor [1],23.4 nM
same,EC50,5-HT2C receptor [2],12.4 nM
same,h5-HT2C Rel. Eff.,5-HT2C receptor [2],95%
same,EC50,5-HT2A receptor [3],534 nM
same,h5-HT2A Rel. Eff.,5-HT2A receptor [3],35%
same,Ki,human 5-HT2B receptors,760 nM
same,Ki,5-HT2A receptor [4],635 nM
